{"source": "paper PMC8966651", "about": "“PKPD Modeling of the Inoculum Effect of Acinetobacter baumannii on Polymyxin B in vivo” (Frontiers in Pharmacology, 2022)", "system": "A. baumannii (CS01)", "assay": "In vivo PKPD model of PMB bactericidal effect and inoculum effect", "parameters": "species or system Acinetobacter baumannii", "details": "for mean IK-HL (initial killing half-life): mean over PMB concentrations; for kslope (kill rate constant due to PMB): model predicted", "excerpt": "A PKPD model was developed in two steps to quantify the exposure-effect relationship of PMB in infected mice. First, time courses of total and unbound PMB concentrations were modeled and then, PK parameters were fixed during development of the PD part of the PKPD model.\nThe structural model for the bacterial population included one compartment representing drug-susceptible growing bacteria. A logistic function was used to model the self-limiting growth observed in vivo: dB/dt= knet×(1−B/Bmax)×B (1) Where, B (CFU/thigh) is the drug-susceptible bacterial population, knet (h^−1) is the apparent (net) growth rate constant and Bmax (CFU/thigh) the maximum bacterial count reached in the tissue. The residual error was additive on a log10 scale for bacterial counts (log10 CFU/thigh).\nPredicted unbound plasma concentrations were linked to the bacterial sub-model using a mathematical function to characterize PMB antimicrobial effect (kPMB) such as: dB/dt= knet×(1−B/Bmax)×B − kPMB×B (2) Where multiple functions (linear, power, basic Emax or a sigmoidal Emax function) for kPMB were tested.\nEmpirical mathematical functions (i.e. linear, exponential and power) describing the relationship between kPMB and inoculum size were tested as a way to include the impact of inoculum size on PMB bactericidal activity.”\nModel selection was based on objective function value (OFV) and goodness of fit (GOF) plots. When two models were nested, a decrease in OFV of at least 3.84 (chi square 1df p = 0.05) was needed to select the most complex model. Visual predictive checks (VPCs) based on 1,000 simulations were drawn after stratification on the PMB dose and the starting inoculum to evaluate the predictive performance of the model and were taken into account for model selection. Data below the LOQ were taken into account during parameter estimation by applying Beal’s M3 method ([Beal, 2001]). Parameter estimation was performed using NONMEM software (ICON, Dublin, Ireland) version 7.4.2 using the LAPLACIAN algorithm. Uncertainty around population parameters was estimated using the sampling importance resampling (SIR) technique ([Dosne et al., 2016]).\nTo evaluate the impact of outliers on parameter estimates and model-based inferences, a sensitivity analysis was performed. Briefly, model estimation was performed with the complete dataset and with a reduced dataset excluding outliers. Parameter estimates were compared and simulations of expected bacterial counts for all tested experimental conditions (i.e. all inocula and dosing regimens) were performed with the two parameter estimate sets.\nThe time course of bacterial counts was adequately described by the model depicted on Figure 1. VPCs of the final model are shown on Figure 3 and GOF plots on Supplementary Figure S4. PMB bactericidal effect (kPMB) was best described by a power function: kPMB = kslope × Cuγ (5) Where kslope corresponds to the kill rate constant due to PMB (L/mg.h), Cu the unbound PMB concentration (mg/L) and γ , the power parameter for PMB effect.\nThe inoculum effect was incorporated in the model as a decrease of kslope with increasing theoretical starting inoculum using a linear function: kslope=kslope,med +kinoc×(starting inoculum−6) (6) Where kslope,med is the kill rate constant for a theoretical starting inoculum of 6 log10 CFU/thigh corresponding to the median of the starting inoculum tested in the present study (5, 6 or 7 log10 CFU/thigh) and kinoc is the constant describing the inoculum effect on kslope.", "note": "Where a name gives a salt, the structure may show the parent alone. Bridge positions count the residues as written; N and C are the ends. Square brackets hold non-standard residues; d marks the D form. Peptide text beside a SMILES is read from it. * marks the point of attachment. X1 = CC[C@H](C)CCCCC(=O)*; Dab = NCC[C@H](N)C(=O)O"}
{"smiles": "CC[C@H](C)CCCCC(=O)N[C@@H](CCN)C(=O)N[C@H](C(=O)N[C@@H](CCN)C(=O)N[C@H]1CCNC(=O)[C@H]([C@@H](C)O)NC(=O)[C@H](CCN)NC(=O)[C@H](CCN)NC(=O)[C@H](CC(C)C)NC(=O)[C@@H](Cc2ccccc2)NC(=O)[C@H](CCN)NC1=O)[C@@H](C)O", "note": "[PMB, Polymyxin B sulfate] (X1-[Dab]T[Dab][Dab][Dab][dF]L[Dab][Dab]T; lactam 4-C)", "values": [{"measurement": "mean IK-HL higher at 10^7 CFU/thigh compared with 10^5 CFU/thigh inoculum", "setting": "in vivo", "result": 48, "unit": "%"}, {"measurement": "mean IK-HL (initial killing half-life)", "setting": "in vivo, inoculum 10^5 CFU/thigh", "result": 32.4, "unit": "min"}, {"measurement": "mean IK-HL (initial killing half-life)", "setting": "in vivo, inoculum 10^7 CFU/thigh", "result": 48, "unit": "min"}, {"measurement": "kslope (kill rate constant due to PMB)", "setting": "starting inoculum 5 log10 CFU/thigh", "result": 19800, "unit": "µL/min/mg"}, {"measurement": "kslope (kill rate constant due to PMB)", "setting": "starting inoculum 7 log10 CFU/thigh", "result": 13500, "unit": "µL/min/mg"}, {"measurement": "decrease in the in vivo PMB bactericidal effect", "setting": "starting inoculum increases from 10^5 to 10^7 CFU/thigh", "result": 32, "unit": "%"}, {"measurement": "change of kslope", "setting": "starting inoculum increasing from 5 to 7 log10 CFU/thigh", "result": "−32", "unit": "%"}, {"measurement": "Model derived initial killing half-life", "setting": "unbound PMB 0.5 mg/L, inoculum 10^5 CFU/thigh", "result": 39, "unit": "min"}, {"measurement": "Model derived initial killing half-life", "setting": "unbound PMB 0.5 mg/L, inoculum 10^6 CFU/thigh", "result": 47, "unit": "min"}, {"measurement": "Model derived initial killing half-life", "setting": "unbound PMB 0.5 mg/L, inoculum 10^7 CFU/thigh", "result": 58, "unit": "min"}, {"measurement": "Model derived initial killing half-life", "setting": "unbound PMB 1 mg/L, inoculum 10^5 CFU/thigh", "result": 35, "unit": "min"}, {"measurement": "Model derived initial killing half-life", "setting": "unbound PMB 1 mg/L, inoculum 10^6 CFU/thigh", "result": 42, "unit": "min"}, {"measurement": "Model derived initial killing half-life", "setting": "unbound PMB 1 mg/L, inoculum 10^7 CFU/thigh", "result": 52, "unit": "min"}, {"measurement": "Model derived initial killing half-life", "setting": "unbound PMB 2 mg/L, inoculum 10^5 CFU/thigh", "result": 31, "unit": "min"}, {"measurement": "Model derived initial killing half-life", "setting": "unbound PMB 2 mg/L, inoculum 10^6 CFU/thigh", "result": 37, "unit": "min"}, {"measurement": "Model derived initial killing half-life", "setting": "unbound PMB 2 mg/L, inoculum 10^7 CFU/thigh", "result": 46, "unit": "min"}, {"measurement": "Model derived initial killing half-life", "setting": "unbound PMB 3 mg/L, inoculum 10^5 CFU/thigh", "result": 29, "unit": "min"}, {"measurement": "Model derived initial killing half-life", "setting": "unbound PMB 3 mg/L, inoculum 10^6 CFU/thigh", "result": 35, "unit": "min"}, {"measurement": "Model derived initial killing half-life", "setting": "unbound PMB 3 mg/L, inoculum 10^7 CFU/thigh", "result": 43, "unit": "min"}, {"measurement": "Model derived initial killing half-life", "setting": "unbound PMB 4 mg/L, inoculum 10^5 CFU/thigh", "result": 28, "unit": "min"}, {"measurement": "Model derived initial killing half-life", "setting": "unbound PMB 4 mg/L, inoculum 10^6 CFU/thigh", "result": 33, "unit": "min"}, {"measurement": "Model derived initial killing half-life", "setting": "unbound PMB 4 mg/L, inoculum 10^7 CFU/thigh", "result": 41, "unit": "min"}]}
